Data taken from patent US6087361A, “Aryl-imidazolines and aryl-imidazoles useful as α-2 adrenergic agonists without cardiovascular side effects” (Allergan Sales, Inc., priority 1997, dated 2000).

Legend:
[1] = target: I2B; assay: Receptor binding, I2B
[2] = target: I1 imidazoline receptor; assay: I1 imidazoline receptor binding assay, 3H-clonidine, bovine VLM membranes; conditions: 25° C., 50 min
Method: Fresh bovine brain stems were obtained from a local slaughter house. After removal of pia-arachnoid, the medulla was isolated by dissecting the brain stem about 1 cm posterior and 1 cm caudal to the obex. The ventral quadrants of the medulla excluding the pyramids were used as the VLM. For each preparation, 30 to 40 VLM were used. Initial homogenization was performed in 20 volumes of 5 mM HEPES buffer (pH 7.4 at 4° C.) containing 250 mM sucrose, 50 uM Calpain I inhibitor (Boehginer Mannheim, Indianapolis, Ind.), 100 uM 1,10-phenanthroline (Sigma, St. Louis, Mo.) and 50 uM Pefabloc (Boehginer Mannheim, Indianapolis, Ind.), using Virtis homogenizer at setting 7 with three 10 second pulses, followed by three passes in a teflon-glass tissue homogenizer. The inhibitors were added to prevent degradation by proteases and peptidases. The homogenates were then centrifuged at 1000× g for 10 min and the resulting pellets were re-homogenized and centrifuged. Supernatants resulted from both runs were combined and centrifuged for 20 min at 48000× g. The pellets obtained were resuspended in a teflon-glass homogenizer in 50 mM Tris-HCl with 5 mM EDTA (pH 7.7 at 4° C.), centrifuged, and resuspended in 50 mM Tris-HCl with 25 mM NaCl, pH 7.7 at room temp. To remove endogenous ligands, the homogenate was incubated 30 min at room temp before it was centrifuged for 20 min at 48000× g. The pellets were then washed with 50 mM Tris-HCl buffer, (pH 7.4 at 4° C.) and loaded on top of 5 mM HEPES/0.85 M sucrose (pH 7.4 at 4° C.). Pellets obtained after centrifugation at 48000× g for 20 min were saved. The fatty connective tissue on the top layer was discarded. The partially purified VLM membrane pellets were then washed twice with 50 mM Tris-HCl, pH 7.7 at 4° C., flash frozen in dry ice/acetone slush, and stored at -100° C. until use. Receptor binding experiments were performed within days after the membrane preparation.
I1 imidazoline receptor binding affinity was determined from radioligand binding of ^3 H-clonidine (NEN, Boston, Mass.) to bovine VLM membranes. Specific activity of ^3 H-clonidine was 43 Ci/mmol. Kd of ^3 H-clonidine binding to the I1 imidazoline receptor was determined by saturation experiments and Ki of other ligands studied were determined by competition experiments. The radioligand binding assay was performed in Teflon 96-wells with the Biomek-1000 robotics (Beckman Instruments, Fullerton, Calif.). Each well contained […] ^3 H-Clonidine and 0.3 to 0.5 mg of bovine VLM protein in 5 mM HEPES buffer containing 0.5 mM EGTA and 0.5 mM MgCl2, pH 7.4 (0.1 mM ascorbic acid was added just before the protein). After 50 min of incubation at 25° C., the reaction was terminated by rapid filtration over Whatman GF/B filters treated with 0.1% polyethyleneimine and washed with 12 ml ice cold 50 mM Tris-HCl, pH 7.4 at 4° C. in a Brandel Harvester (Brandel, Gaithersburg, Md.). Both `hot` and `cold` saturation experiments were performed. In `hot` saturation experiments, studies were performed with ^3 H-clonidine ranging from 0.1 to 50 nM. In `cold` saturation experiments, studies were performed with 2 nM ^3 H-clonidine with 20 different concentrations of the unlabeled clonidine, ranging from 0.1 nM to 1 uM unlabeled clonidine. Non specific binding was defined by parallel incubations containing 10^-5 M phentolamine or naphazoline. Imidazoline binding was determined by parallel incubations in which the alpha-adrenergic sites were masked with 10^-5 M norepinephrine. During competition experiments, ligands of 20 concentrations ranged from 10^-11 to 10^-4 were used. Radioactivity was counted in a Beckman LS-3801 scintillation counter. Data were captured and analyzed with Accufit saturation and competition softwares modeled both for one-site and two-site fits (Beckman Instruments, Fullerton, Calif.) using an IBM compatible computer. All experiments were repeated at least twice.

[3] = target: α1; assay: Receptor binding, [3H]prazosin, human cerebral cortex membranes (HCC); conditions: 22° C., 30 min
Method: Tissue preparation: Membrane suspensions were prepared from human cerebral cortex ([…], for α1 receptors) obtained from the UCI Organ and Tissue Bank. Briefly, tissues (1 g) were homogenized in 25 mL of ice-cold 5 mM Tris, pH 7.4 with a Polytron homogenizer for 30 sec at setting #7, and centrifuged for
10-12 minutes at 300× g at 4° C. The supernatant was filtered through 2 layers of gauze and diluted 1:2 with 50 mM Tris-HCl buffer, pH 7.4, then centrifuged at 49,000× g for 20 minutes. The pellet fraction was washed 3 times (resuspended in Tris-HCl buffer and centrifuged for 20 minutes; at 49,000× g). The pellet was then stored at -80° C. until the binding assay.
(§1) Binding Studies: The radioligands [^3 H]rauwolscine (specific activity 80 Ci/mmol) and [^3 H]prazosin (specific activity 76 Ci/mmol) were obtained from New England Nuclear, Boston, Mass. Frozen membrane pellet was resuspended in 25 mM glycine/glycine, pH 7.5 and incubated with radioligand under the following conditions: CHO-C10, CHO-RNG, CHO-C4-[^3 H]rauwolscine, 22° C., 30 minutes; RKC-[^3 H]rauwolscine, 0° C., 120 minutes; and, HCC-[^3 H]prazosin, 22° C., 30 minutes in a final volume of 500 ul. At the end of the incubation period, the samples were filtered through glass filters (Whatman GF/B) in a 96 well cell harvester and rapidly washed four times with 4 mL of iced-cold 50 mM Tris-HCl buffer. The filters were then oven dried and transferred to scintillation vials containing 10 mL of Beckman's Ready Protein® scintillation cocktail for counting. […] Protein concentrations were determined with a protein assay kit from Bio Rad. Binding isotherms, equilibrium dissociation and affinity constants were analyzed and determined by the non-linear least squares curve fitting programs EBDA (BioSoft) or AccuFit Competition/Saturation by Beckman.
(§2) The radioligands [^3 H] rauwolscine (specific activity 80 Ci/mmol) and [^3 H] prazosin (specific activity 76 Ci/mmol) were obtained from New England Nuclear, Boston, Mass. Frozen membrane pellet was resuspended in 25 mM glycine/glycine, pH 7.4 and incubated with radioligand under the following conditions: CHO-C10, CHO-RNG, CHO-C4-[^3 H]rauwolscine, 22° C., 30 min.; and, HCC-[^3 H]prazowsin, 22° C., 30 minutes in a final volume of 500 ul. At the end of the incubation period, the samples were filtered through glass fiber filters (Whatman GF/B) in a 96 well cell harvester and rapidly washed four times which 4 mL of iced-cold 50 mM Tris-CHI buffer. The filters were then oven dried and transferred to scintillation vials containing 5 mL of Beckman's Ready Protein® scintillation cocktail for counting. […] Protein concentrations were determined with a protein assay kit from Bio lad. Binding isotherms, equilibrium dissociation and affinity constants were analyzed and determined by the non-linear least squares curve fitting programs AccuFit Competition/Saturation by Beckman.
(§3) Representative compounds of the present invention were tested according to the procedures given above. […] The receptor binding studies and K1 are measures of the affinity of a compound for a particular receptor.

[4] = target: I2A; assay: Receptor binding, I2A
[5] = system: α1 receptors; conditions: prazosin vs yohimbine; cited from earlier work
[6] = system: α2A; conditions: cited from earlier work
[7] = target: T1, human α2C (Homo sapiens, UniProt P18825); assay: Receptor binding, [3H]rauwolscine, CHO-C4 cells expressing human α2C; conditions: CHO-C4, 22° C., 30 min
T1 construct: expressed in transfected cells; host or cells: CHO cells (CHO-C4)
T1 sequence (P18825 1-462): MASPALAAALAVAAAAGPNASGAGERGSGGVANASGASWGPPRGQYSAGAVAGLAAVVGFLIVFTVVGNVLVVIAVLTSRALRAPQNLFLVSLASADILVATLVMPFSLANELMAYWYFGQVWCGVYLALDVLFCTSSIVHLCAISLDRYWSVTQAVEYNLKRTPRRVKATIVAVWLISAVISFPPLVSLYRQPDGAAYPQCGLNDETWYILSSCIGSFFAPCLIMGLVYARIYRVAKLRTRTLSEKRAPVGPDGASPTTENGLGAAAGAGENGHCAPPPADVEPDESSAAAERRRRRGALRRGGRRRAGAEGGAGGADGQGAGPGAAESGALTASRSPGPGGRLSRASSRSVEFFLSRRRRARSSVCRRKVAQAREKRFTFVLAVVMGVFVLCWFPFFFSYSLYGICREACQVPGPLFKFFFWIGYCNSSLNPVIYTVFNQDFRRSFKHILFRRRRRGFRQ
Method: Cell preparation: Chinese hamster ovary (CHO) cells expressing the human α2A and human α2C (CHO-C10 and CHO-C4 respectively) receptors and CHO cells (CHO-RNG) expressing the rat α2B, adrenoceptor were grown to near confluence in Dulbecco's modified Eagle's medium supplemented with 10% fetal bovine serum using standard cell culture methods. Cells were harvested by scraping and placed into cold buffer of the following composition: 50 mM Tris-HCl, 5 mM EDTA, pH 7.4). […] The pellet fraction was washed (resuspended in Tris-HCl, pH 8 buffer and centrifuged for 15-20 minutes at 49,000× g) 2 times and stored at -100° until binding assay.
as §1, §2, §3

[8] = rabbit, in vivo
[9] = cited from earlier work
[10] = system: imidazoline receptors and α2 adrenoceptors; conditions: cited from earlier work
[11] = system: α2 receptors; conditions: cited from earlier work

SMILES	Ki [1] [µM]	Ki [2] [µM]	Ki [3] [µM]	Ki [4] [µM]	also measured
COc1nc(C)nc(Cl)c1NC1=NCCN1 [Example 6]	100	0.056	38.6	100	
COc1cc2nc(N3CCN(C(=O)c4ccco4)CC3)nc(N)c2cc1OC [prazosin]					relative potency at α1 receptors (in words) [5]: more potent that yohimbine
COc1ccc(Nc2ncc[nH]2)c(C)c1 [Example 19]	0.179	0.013	7.61	6.18	
Cc1cccc([C@H](C)c2cnc[nH]2)c1C [dexmedetomidine]					α2A selectivity (in words) [6]: a2A selective
Brc1c(NC2=NCCN2)ccc2nccnc12 [Example 5]	0.614	0.017	1.85	7.19	
Cc1c(Nc2ncc[nH]2)ccc2c1OCCO2 [Example 21]	0.686	0.444	2.15	7.71	
Cc1c(Nc2ncc[nH]2)ccc2nccnc12 [Example 24]	0.036	0.227	30.6	6.37	Ki [7]: 0.212 µM
Clc1cccc(Cl)c1N=C1NCCN1 [clonidine]					IOP of the untreated eye (systemic effect) [8]: the IOP of the untreated eye is lowered to the same extent as the treated eye; cardiovascular effect (in words) ([9]; in vivo): hypotensive cardiovascular effects; binding to α2 and imidazoline receptors (in words) [10]: binds to both α2 and imidazoline receptors; α2 adrenergic mechanism of action (in words) [11]: centrally acting α2 adrenergic partial agonist
Clc1cccc(Cl)c1NC1=NCCN1 [Example 2]	12.5	0.0089		10	
C1COC(NC(C2CC2)C2CC2)=N1 [rilmenidine]					side effects compared to clonidine ([9]; equihypotensive doses): less bradycardia and reduction in cardiac output, less sedation, and little or no antinociceptive action compared to clonidine; selectivity for imidazoline receptors (in words) [10]: more selective for imidazoline receptors than for α2 -adrenoceptors
Cc1cc(C(C)(C)C)c(O)c(C)c1CC1=NCCN1 [Example 23]	2.69	7.42	0.199	12.9	
COC(=O)[C@@H]1[C@H]2C[C@H]3c4[nH]c5ccccc5c4CCN3C[C@@H]2CC[C@@H]1O [yohimbine]					relative potency at α2 receptors (in words) ([11]; yohimbine vs prazosin): more potent than prazosin
Cc1c(Nc2ncc[nH]2)ccc2c1NCCO2 [Example 17]	9.28	5.3	14.8	27	
